We go through 17 molecules from US8735398B2 (Bristol-Myers Squibb Company, priority 2009, dated 2014).

In one test the test system is HCV 1b genotype. As to the kind of experiment: HCV replicon assay (HCV-neo replicon cells, wild-type). The test is classed as cell-based, Hepatitis C virus. As to conditions: Hepatitis C virus, HCV 1b genotype replicon; class symbol; read-out: EC50 Range against HCV 1b. An outline of the steps:
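Inhibition was tested in replicon-bearing cells, both wild-type HCV-neo and lines with NS5A resistance substitutions, using the O'Boyle et al. 2005 replicon method or luciferase-reporter formats.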
For the molecule `CO[C@H](C(=O)N1CCC[C@H]1C(=O)Nc1ccc(-c2nc[nH]c2-c2ccc(NC(=O)[C@@H]3CCCN3C(=O)[C@@H](OC)c3ccccc3)cc2)cc1)c1ccccc1` [JG-45, (2S,2′S)-N,N′-(1H-imidazole-4,5-diyldi-4,1-phenylene)bis(1-((2S)-2-methoxy-2-phenylacetyl)-2-pyrrolidinecarboxamide)], the EC50 was in the range of 4.57 to 99 nM.
`COc1cccc2c(C(=O)N3CCC[C@H]3C(=O)Nc3ccc(-c4ccc(-c5ccc(NC(=O)[C@@H]6CCCN6C(=O)[C@@H](O)c6ccccc6)cc5)o4)cc3)nc(Cl)cc12` [JG-68, (2S)-1-((3-chloro-5-methoxy-1-isoquinolinyl)carbonyl)-N-(4-(5-(4-((((2S)-1-((2S)-2-hydroxy-2-phenylacetyl)-2-pyrrolidinyl)carbonyl)amino)phenyl)-2-furyl)phenyl)-2-pyrrolidinecarboxamide]: the EC50 fell in the range of 100 to 999 nM.
Still for that read-out and setting: then `CN(C)[C@@H](C(=O)N1CCC[C@H]1C(=O)Nc1ccc(-c2ccc(-c3ccc(NC(=O)[C@@H]4CCCN4C(=O)[C@H](O)c4ccccc4)cc3)o2)cc1)c1ccccc1` [JG-66, (2S)-1-((2R)-2-(dimethylamino)-2-phenylacetyl)-N-(4-(5-(4-((((2S)-1-((2R)-2-hydroxy-2-phenylacetyl)-2-pyrrolidinyl)carbonyl)amino)phenyl)-2-furyl)phenyl)-2-pyrrolidinecarboxamide], with less than 4.57 nM.
With `C[C@H](NC(=O)[C@@H](O)c1ccccc1)C(=O)Nc1ccc(-c2cnc(-c3ccc(NC(=O)[C@H](C)NC(=O)[C@@H](O)c4ccccc4)cc3)o2)cc1` [OL-54, (2S,2′S)-N,N′-(1,3-oxazole-2,5-diyldi-4,1-phenylene)bis(2-(((2S)-2-hydroxy-2-phenylacetyl)amino)propanamide)], the EC50 was in the range of 4.57 to 99 nM.
On the same count and under the same terms, the result for `O=C(Nc1ccc(-c2cnc(-c3ccc(NC(=O)[C@@H]4CCCN4C(=O)c4cccc(F)n4)cc3)o2)cc1)[C@@H]1CCCN1C(=O)c1cccc(F)n1` [OL-50, (2S,2′S)-N,N′-(1,3-oxazole-2,5-diyldi-4,1-phenylene)bis(1-((6-fluoro-2-pyridinyl)carbonyl)-2-pyrrolidinecarboxamide)] reads 100 to 999 nM; that for `O=C(Nc1ccc(-c2cnc(-c3ccc(NC(=O)[C@@H]4CCCN4C(=O)C(O)c4nccs4)cc3)o2)cc1)[C@@H]1CCCN1C(=O)C(O)c1nccs1` (stereo partly drawn) [Example D-10, (2S,2′S)-N,N′-(1,3-oxazole-2,5-diyldi-4,1-phenylene)bis(1-(hydroxy(1,3-thiazol-2-yl)acetyl)-2-pyrrolidinecarboxamide)], 100 to 999 nM.
For the molecule `O=C(Nc1ccc(-c2nnc(-c3ccc(NC(=O)[C@@H]4CCCN4C(=O)C4CCC4)cc3)o2)cc1)[C@@H]1CCCN1C(=O)C1CCC1` [Example D-59, (2S,2′S)-N,N′-(1,3,4-oxadiazole-2,5-diyldi-4,1-phenylene)bis[1-(cyclobutylcarbonyl)-2-pyrrolidinecarboxamide]], the EC50 was 1000 to 10000 nM.
Same read-out and setting: the result for `O=C(Nc1ccc(-c2ccc(-c3ccc(NC(=O)[C@@H]4CCCN4C(=O)OCc4ccccc4)cc3)s2)cc1)[C@@H]1CCCN1C(=O)OCc1ccccc1` [OL-23, (2S,2′S)-2,2′-[2,5-thienediylbis(4,1-phenyleneiminocarbonyl)]bis-1-pyrrolidinecarboxylic acid, bis(phenylmethyl) ester] reads 4.57 to 99 nM.
In the case of `O=C(Nc1ccc(-c2nncn2-c2ccc(NC(=O)[C@@H]3CCCN3C(=O)OCc3ccccc3)cc2)cc1)[C@@H]1CCCN1C(=O)OCc1ccccc1` [OL-14, (2S,2′S)-2,2′-[4H-1,2,4-triazole-3,4-diylbis(4,1-phenyleneiminocarbonyl)]bis-1-pyrrolidinecarboxylic acid, bis(phenylmethyl) ester], the EC50 was 1000 to 10000 nM.
As to `CN(C)[C@@H](C(=O)N1[C@H](C(=O)N2CCC[C@H]2C(=O)Nc2ccc(-c3cnc(-c4ccc(NC(=O)[C@@H]5CCCN5C(=O)[C@@H]5C[C@@H]6C[C@@H]6N5C(=O)[C@@H](c5ccccc5)N(C)C)cc4)o3)cc2)C[C@@H]2C[C@@H]21)c1ccccc1` [Example D-40, (2S,2′S)-N,N′-(1,3-oxazole-2,5-diyldi-4,1-phenylene)bis(1-(((1S,3S,5S)-2-((2R)-2-(dimethylamino)-2-phenylacetyl)-2-azabicyclo[3.1.0]hex-3-yl)carbonyl)-2-pyrrolidinecarboxamide)], the EC50 lay within 100 to 999 nM.
The same measure, in the same setting: then `C[C@H](NC(=O)OCc1ccccc1)C(=O)Nc1ccc(-c2nc[nH]c2-c2ccc(NC(=O)[C@H](C)NC(=O)OCc3ccccc3)cc2)cc1` [OL-8, [1H-imidazole-4,5-diylbis[4,1-phenyleneimino[(1S)-1-methyl-2-oxo-2,1-ethanediyl]]]bis-carbamic acid, bis(phenylmethyl) ester], with 4.57 to 99 nM.

Still in this test, the particulars now being: Hepatitis C virus, HCV 1b genotype replicon; class symbols; read-out: EC50 Range against HCV 1b.
For the molecule `O=C(Nc1ccc(-c2cnc(-c3ccc(NC(=O)[C@@H]4C[C@@H](O)CN4C(=O)[C@H]4CCCO4)cc3)o2)cc1)[C@@H]1C[C@@H](O)CN1C(=O)[C@H]1CCCO1` [XY-50, (2S,4R,2′S,4′R)-N,N′-(1,3-oxazole-2,5-diyldi-4,1-phenylene)bis(4-hydroxy-1-((2R)-tetrahydro-2-furanylcarbonyl)-2-pyrrolidinecarboxamide)], the EC50 fell in the range of 1000 to 10000 nM.
Still for that read-out and setting: then `CC1(C(=O)N2CCC[C@H]2C(=O)Nc2ccc(-c3cnc(-c4ccc(NC(=O)[C@@H]5CCCN5C(=O)C5(C)CC5)cc4)o3)cc2)CC1` [XY-39, (2S,2′S)-N,N′-(1,3-oxazole-2,5-diyldi-4,1-phenylene)bis(1-((1-methylcyclopropyl)carbonyl)-2-pyrrolidinecarboxamide)], with 100 to 999 nM; and `CC(C)(C)O[C@@H]1C[C@@H](C(=O)Nc2ccc(-c3cnc(-c4ccc(NC(=O)[C@@H]5C[C@@H](OC(C)(C)C)CN5C(=O)[C@H]5CCCO5)cc4)o3)cc2)N(C(=O)[C@H]2CCCO2)C1` [XY-68, (2S,4R,2′S,4′R)-N,N′-(1,3-oxazole-2,5-diyldi-4,1-phenylene)bis(4-tert-butoxy-1-((2R)-tetrahydro-2-furanylcarbonyl)-2-pyrrolidinecarboxamide)], with 100 to 999 nM.
As for `CCCC(C)(C)C(=O)N1CCC[C@H]1C(=O)Nc1ccc(-c2cnc(-c3ccc(NC(=O)[C@@H]4CCCN4C(=O)C(C)(C)CCC)cc3)o2)cc1` [XY-19, (2S,2′S)-N,N′-(1,3-oxazole-2,5-diyldi-4,1-phenylene)bis(1-(2,2-dimethylpentanoyl)-2-pyrrolidinecarboxamide)], the EC50 was 1000 to 10000 nM.
The same measure, in the same setting: the result for `CN(C)CC(=O)N1CCC[C@H]1C(=O)Nc1ccc(-c2cnc(-c3ccc(NC(=O)[C@@H]4CCCN4C(=O)CN(C)C)cc3)o2)cc1` [XY-5, (2S,2′S)-N,N′-(1,3-oxazole-2,5-diyldi-4,1-phenylene)bis(1-((dimethylamino)acetyl)-2-pyrrolidinecarboxamide)] reads 1000 to 10000 nM.
On the same count and under the same terms, the result for `Cc1noc(C)c1C(=O)N1CCC[C@H]1C(=O)Nc1ccc(-c2cnc(-c3ccc(NC(=O)[C@@H]4CCCN4C(=O)c4c(C)noc4C)cc3)o2)cc1` [XY-28, (2S,2′S)-N,N′-(1,3-oxazole-2,5-diyldi-4,1-phenylene)bis(1-((3,5-dimethyl-4-isoxazolyl)carbonyl)-2-pyrrolidinecarboxamide)] reads 100 to 999 nM.

The test is the same for the next values; noted with them: Hepatitis C virus, HCV 1b genotype replicon; read-out: EC50 1b.
Take `O=C(Nc1ccc(-c2nnc(-c3ccc(NC(=O)[C@@H]4CCCN4C(=O)C4CCC4)cc3)o2)cc1)[C@@H]1CCCN1C(=O)C1CCC1` [Example D-59, (2S,2′S)-N,N′-(1,3,4-oxadiazole-2,5-diyldi-4,1-phenylene)bis[1-(cyclobutylcarbonyl)-2-pyrrolidinecarboxamide]]: the EC50 amounted to 5450 nM.
